The results in this text go back to PubChem BioAssay AID504672 (Sanford-Burnham Center for Chemical Genomics, 2011).

As usually defined, the pIC50 is the IC50 on a negative log10 scale, so that one unit is a factor of ten. By IC50 is commonly meant the concentration that gives 50% inhibition.

pIC50: −log10 of the molar value. Active and inactive are the calls of the source. Cut-off read from the data, not from the text of the source: active = IC50 below about 71 µM; inactive = the rest.

The test system of the assay is S. cerevisiae tim10 strain, luminescence counterscreen. Kind of assay: signal inhibition in TIM10 yeast counter-screen, dose response, counter-screen for tim23-1 inhibitor project, luminescence, S. cerevisiae, uHTS hits (AID 504672).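 Note: yeast grew roughly 22 hours at 25 °C before the luminescence read.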 In general terms: Counterscreens check selectivity or assay interference.
As to `Cc1ccc(NC(=O)c2ccc3c(c2)OCCO3)cc1C`, the negative logarithm of the IC50 (pIC50) is 5.38.
`C[C@@]12C(=O)Nc3ccc(Cl)cc3C(=O)N1[C@H]1c3ccccc3OC[C@@H]1[C@@H]2c1ccccc1`: the negative logarithm of the IC50 (pIC50) was 5.46.
On the same count and under the same terms, to `COc1ccc(C(=O)c2sc(Nc3ccccc3F)nc2N)cc1` belongs 4.78; to `COc1ccc(C(C[N+](=O)[O-])c2c(-c3ccccc3)cc3ccccn23)cc1OC` (configuration not stated), 4.68; to `C/C(=N\Nc1nc2ccccc2s1)c1cccs1`, 4.77.
`Cn1c(-c2sc3ccccc3c2Cl)n[nH]c1=S`: the pIC50 is 5.24.
Still for that read-out and setting: to `CC(C)c1nc(NCCO)c(C#N)c2c1CCCC2` belongs 4.73; to `COc1cccc2c1C(=O)C=C(C)C2=O`, 4.88; to `COc1cc2c(cc1OC)/C(=C/c1ccc(Cl)cc1)C(=O)OC2`, 4.29.
In the case of `Cc1ccccc1[C@@]1(C)ON(c2ccccc2C(F)(F)F)C1=O`, the pIC50 was 5.43.
Take `O=C(Nc1ccc(-c2cn3ccccc3n2)cc1)c1cccs1`: the IC50 was > 100 µM (inactive).
As for `CC1=CC(C)(C)N(C(=O)c2ccc(F)cc2)c2cc3c(cc21)OCO3`, the pIC50 was 5.42.
With `Cc1[nH]c2ccccc2c1C(=O)/C=C/c1ccccc1`, the negative logarithm of the IC50 (pIC50) was 4.89.
The same measure, in the same setting: to `CC1CCc2c(c3ccccc3n2C(=O)CCl)C1` (configuration not stated) belongs 5.29.
Consider `O=Cc1cn(CCOc2ccccc2F)c2ccccc12`, for which the negative logarithm of the IC50 (pIC50) is 4.65.
On to `COn1c(=O)c(-c2cccs2)[n+]([O-])c2ccccc21`, for which the negative logarithm of the IC50 (pIC50) is 5.18.
Same read-out and setting: to `N#C/C(C(N)=O)=c1/ccc2c(c1)N1C3=C(CCCC3)CC3CCCCC31N=2` (configuration not stated) belongs 5.07.
The same measure, in the same setting: as for `COc1ccc(C(=O)N/N=C\c2coc3ccc(Cl)cc3c2=O)cc1`, the figure is 4.49; as for `CC(C(Sc1ccccc1N)c1ccccc1)[N+](=O)[O-]` (configuration not stated), 5.28; as for `Brc1ccc(-n2cnc(-c3ccccc3)c2)cc1`, 4.76.
`C=CCNC(=O)c1ccc2c3n(nc2c1)-c1ccc(Cl)cc1CO3`: the pIC50 is 5.08.
Still for that read-out and setting: as for `O=C(NCc1cccnc1)/C(=C\c1ccc(-c2ccc(Br)cc2)o1)S(=O)(=O)c1ccccc1`, the figure is 5.24; as for `Cc1ccc2nc(NC(=O)Cn3nc(C)c([N+](=O)[O-])c3C)sc2c1`, 4.74.
Consider `O=C(N/N=C/c1ccc(Br)s1)c1c[nH]c2ccccc12`, for which the pIC50 is 4.88.
Consider `O=C(NC(=O)c1ccccc1F)OCc1ccc(Cl)cc1Cl`, for which the negative logarithm of the IC50 (pIC50) was 4.82.
Still for that read-out and setting: to `Cc1cc(=O)oc2c1c(C(F)(F)F)nn2-c1ccccc1` belongs 5.19; to `CC(C)Cn1cnc2c(c(-c3ccccc3)c(-c3ccccc3)n2Cc2ccco2)c1=N`, 4.37.
